How the values were obtained:
α1 sites = assay: affinity for α1 sites; type: binding; details: read-out: 1C50
5HT1A receptor [1] = biological target: T1, 5HT1A receptor (Rattus norvegicus, UniProt P19327); assay: 5HT1A receptor binding activity in rat hippocampal membrane homogenate; details: read-out: 1C50
T1 construct: rat hippocampal membrane homogenate; from tissue; host or cells: rat hippocampus, membrane homogenate
T1 sequence (P19327 1-422): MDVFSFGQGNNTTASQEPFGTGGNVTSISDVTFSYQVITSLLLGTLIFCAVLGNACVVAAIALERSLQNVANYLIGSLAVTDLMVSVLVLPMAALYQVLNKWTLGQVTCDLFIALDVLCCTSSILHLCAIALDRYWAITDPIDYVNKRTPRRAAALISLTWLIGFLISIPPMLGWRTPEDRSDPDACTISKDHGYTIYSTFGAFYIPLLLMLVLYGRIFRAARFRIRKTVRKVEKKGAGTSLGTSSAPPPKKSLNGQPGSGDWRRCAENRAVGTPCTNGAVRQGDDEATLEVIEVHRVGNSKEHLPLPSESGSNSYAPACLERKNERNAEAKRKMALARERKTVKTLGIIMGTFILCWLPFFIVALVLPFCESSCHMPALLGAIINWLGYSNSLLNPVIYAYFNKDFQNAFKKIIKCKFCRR
Description: The compounds of the invention were tested for 5HT1A receptor binding activity in rat hippocampal membrane homogenate by the method of B. S. Alexander and M. D. Wood, J Pharm Pharmacol, 1988, 40,888-891. The results for representative compounds of the invention are given below

5HT1A receptor [2] = biological target: T2, 5HT1A receptor (Cavia porcellus, UniProt A0A286Y074); assay: 5HT1A receptor antagonism: antagonism of 5-carboxamidotryptamine in the guinea-pig ileum in vitro; type: cell-based; details: read-out: pA2 (converted)
T2 construct: guinea-pig ileum in vitro; from tissue; host or cells: guinea-pig ileum
T2 sequence (A0A286Y074 1-421): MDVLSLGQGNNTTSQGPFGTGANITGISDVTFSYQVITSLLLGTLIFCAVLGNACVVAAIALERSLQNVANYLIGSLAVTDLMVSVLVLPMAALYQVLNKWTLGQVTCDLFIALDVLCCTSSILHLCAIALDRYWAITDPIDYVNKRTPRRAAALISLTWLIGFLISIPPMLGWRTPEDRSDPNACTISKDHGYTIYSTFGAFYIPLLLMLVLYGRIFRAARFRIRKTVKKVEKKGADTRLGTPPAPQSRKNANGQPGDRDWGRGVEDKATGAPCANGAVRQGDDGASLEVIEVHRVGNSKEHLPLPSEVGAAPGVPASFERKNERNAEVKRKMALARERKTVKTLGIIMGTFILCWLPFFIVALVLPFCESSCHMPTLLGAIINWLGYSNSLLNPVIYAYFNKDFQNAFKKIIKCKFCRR
Description: The compounds are tested for 5HT1A receptor antagonism activity in a test involving the antagonism of 5-carboxamidotryptamine in the guinea-pig ileum in vitro (based upon the procedure of Fozard et al, Br J Pharmac, 1985, 86, 601P).

| IC50 (α1 sites) | IC50 (5HT1A receptor [1]) | Kb (5HT1A receptor [2]) | SMILES |
| --- | --- | --- | --- |
| 2160 nM | 9 nM |  | COc1ccccc1N1CCN(C/C(=C/C(=O)N2CCCCCC2)c2ccccc2)CC1 [Example 3 (E-isomer), 2,3,4,5,6,7-Hexahydro-1-[4-(4-(2-methoxyphenyl)piperazin-1-yl)-3-phenylbut-2-enoyl]-1H-azepine] |
| 682 nM | 1.38 nM | 0.794 nM | COc1ccccc1N1CCN(CC(CC(=O)N2CCCCCC2)c2ccccc2)CC1 (centres unmarked) [Example 6, 2,3,4,5,6,7-Hexahydro-1-[4-(4-(2-methoxyphenyl)piperazin-1-yl)-3-phenylbutanoyl]-1H-azepine] |
